According to patent US4952580A, “Pesticidal polyhaloalkene derivatives” (priority 1988, dated 1990):
Where two headings read alike, the source gives them in different places.

Assays:
[1] = system: root-knot nematode (Meloidogyne incognita); assay: Initial Root-Knot Nematicidal Activity; format: in vivo; conditions: 336 h, read-out: Percent Control; for pest or weed control at 0.078 ppm: Table 2, Application Rate 0.078 ppm; for pest or weed control at 0.313 ppm: Table 2, Application Rate 0.313 ppm; for pest or weed control at 1.25 ppm: Table 2, Application Rate 1.25 ppm; for pest or weed control at 2.5 ppm: Table 2, Application Rate 2.5 ppm; for pest or weed control at 0.312 ppm: Table 2, Application Rate 0.312 ppm
Procedure: (§1) Compounds of this invention were tested as follows for nematicidal and anthelmintic activity as dust formulations (initial and residual activity) and as acetone/water formulations (systemic activity). The formulations are described above.
The activity against root-knot nematode (Meloidogyne incognita) was determined by incorporating the compound of the invention in nematode infested soil at rates in the range of 10 ppm to 0.078 ppm of compound. Several tomato or cucumber seedlings were planted in the nematode infested soil. Two weeks after planting the test pots were evaluated to ascertain the degree of galling (swelling) on the roots of the plants, indicating the control provided by the test chemical.
The results expressed as precent control (determined by knot index) are set forth as averages in Table 2 (appended). Knot index is a numerical designation assigned at evaluation, having the following meanings:
Percent control is related to knot index as follows:
When the Knot Index is between 0 and 1 it is further subdivided as follows to indicate how close the percent control is to 75% or 100%: […]

root-knot nematode [2] = assay: Residual Root-Knot Nematicidal Activity; format: in vivo, Meloidogyne incognita; conditions: read-out: Percent Control
Procedure: as §1
The ability of nematicidal compounds of the invention to control root-knot nematode infestations in soil over a period of time after treatment was evaluated. Dust formulations of test compound (5%) were incorporated into soil samples at test compound rates of 5 and 10 ppm. Subsequently, the treated soil samples were inoculated with nematode inoculum at weekly intervals, and Knot Index and Percent Control determined on seedlings planted in the soil samples. Specifically, soil treated with test compound was placed in 7.6 cm diameter fiber pots and stored in a greenhouse. At one, two and four weeks post-treatment, the appropriate number of pots was infested with root-knot nematode eggs and larvae. A cucumber or tomato seedling was planted in each pot and evaluated approximately two weeks after the soil infestation to obtain the test results reported in Tables 3 and 3a appended.

root-knot nematode [3] = assay: Systemic Activity (basipetal, foliar spray) against root-knot nematode; format: in vivo, Meloidogyne incognita; conditions: 336 h, read-out: Percent Control; for pest or weed control at 2000 ppm: Table 8, rate 2000 ppm
Procedure: as §1
Compounds of the invention were tested for basipetal systemic activity against the root-knot nematode. In this test, tomato plants are grown in 10.2 cm diameter fiber pots containing steam-pasteurized soil mix (50%, soil, 50% sand) until 4-6 true leaves appear. Three of the pots are then placed on a turntable in a spray hood and the plants sprayed with 50 ml of water/acetone solution containing the test compound. The soil surface is covered during the spraying to prevent spraying of the soil. After treatment, the potted plants are placed in a lighted drying chamber. The plants are then grown in a growth chamber at 25° C. for three days and inoculated with a standard nematode culture by incorporating the inoculum into the top cm of soil in the pots. The plants are returned to the growth chamber for about two weeks at which time the pots are allowed to dry until the plants begin to wilt. The roots are shaken free of soil and the degree of galling (swelling) noted as compared to galling of untreated control plants. The results are expressed as Knot Index and Percent Control as defined in the initial root-knot nematode activity tests reported above in Table 2.

root-knot nematode [4] = assay: Soil Mobility against root-knot nematode; format: in vivo, Meloidogyne incognita; conditions: 336 h, read-out: Percent Control
Procedure: as §1
The ability of nematicidal compounds of the invention to move through nematode-infested soil […] infested soil, and subsequently eluting the soil with 15 cm of water (equivalent to 15 cm of rainfall) into a series of two or more pots of untreated, but nematode-infested, soil. Specifically, the pots were 8 cm diameter plastic pots containing a 10 cm^3 layer of sand over a coarse grade filter paper disc. Sufficient soil was placed over the sand to fill the pots, and a second filter paper disc was placed over the soil. Each test compound-treated pot was nested over a series of two or more pots containing untreated, but nematode-infested soil, also containing sand filter paper discs as described for the treated soil pots. Fifteen cm of water was slowly dripped into the top pots and the pots were allowed to drain for 16-18 hours to remove excess water. The top filter of each pot was then removed and the pots were planted with a cucumber or tomato seedling. […] "Knot Index" and "Percent Control" are as defined in the initial root-knot nematode tests above.

cyst nematode = assay: Cyst Nematode Test; format: in vivo; conditions: Table 6; rate 5 ppm; read-out: Percent Control
Procedure: as §1
The procedures was substantially the same as described in the stunt nematode test except soybean seedlings were used. "Percent Control" (Table 6 appended) is as defined in the stunt nematode test results.

lesion nematode = assay: Lesion Nematode Test; format: in vivo; conditions: Table 5, read-out: Percent Control; for pest or weed control at 2.5 ppm: rate 2.5 ppm
Procedure: as §1
The procedure was substantially the same as in the stunt nematode test described above except that pea seedlings were used. The results (Table 5 appended) show good control with many of the compounds at the application rates tested as compared with untreated samples (no control). "Percent Control" is defined as follows: [formula]

Caenorhabditis elegans = assay: C. Elegans Nematode Screening Test and Evaluation (in-vitro); conditions: Caenorhabditis elegans; for inhibition at 5 ppm / inhibition at 1.25 ppm / inhibition at 2.5 ppm: read-out: Percent Inhibition of Reproduction; for mortality at 5 ppm / mortality at 1.25 ppm / mortality at 2.5 ppm: read-out: Percent Mortality
Procedure: This in-vitro test using the free-living nematode Caenorhabditis elegans, is a modification of the assay developed by Simpkin and Coles, J. Chem. Tech. […] One milliliter of a test medium consisting of 5 mg ampicillin, 10,000 units of mycostatin and 10 ml of a dense suspension of Escherichia coli per 100 ml of a buffer solution, was pipetted into each well of a 24-well microtiter plate. The candidate nematicide, suspended at the appropriate concentration in dimethylsulfoxide, was added to the wells in […] volumes. Each rate of application was replicated two to three times. After thorough mixing of the contents of each well, 50 to 100 μl of a nematode suspension in a buffer was added so that each well received 10-15 nematodes. After the nematodes were added, the microtiter plates were incubated at 20° C. for 5-6 days.
The effect of the candidate nematicide on the survival and the reproduction of C. elegans was then evaluated by comparison of the level of population developed in the treated wells with that in untreated wells. Specific effects on population development, such as reduced egg hatch or molting disruption, were noted if they were evident.

stunt nematode = assay: Stunt Nematode Test; format: in vivo; conditions: 672 h, Table 4a; rate 5 ppm; read-out: Percent Control
Procedure: as §1
The procedure was substantially the same as in the […] seedling, with subsequent inoculation of the soil with combined larvae and adult stunt nematodes. The samples were evaulated approximately four weeks after infestation. […] "Percent control" means the difference between average population counts between untreated and treated samples, divided by average population count of untreated sample, multiplied by 100.

[5] = Table 2, Application Rate 0.156 ppm
[6] = Table 2, Application Rate 0.625 ppm
[7] = 672 h, Table 3, inoculation 4 weeks after treatment

FC(F)=C(F)CCSc1nnc(SCCC(F)=C(F)F)s1 [Compound 13, 2,5-di(3,4,4-trifluoro-3-butenylthio)-1,3,4-thiadiazole]
pest or weed control at 0.078 ppm [1]: 0% | pest or weed control at 0.156 ppm [1, 5]: 13% | pest or weed control at 0.313 ppm [1]: 71% | pest or weed control at 0.625 ppm [1, 6]: 96% | pest or weed control at 1.25 ppm [1]: 99% | pest or weed control at 2.5 ppm [1]: 99% | pest or weed control at 0.625 ppm [1]: 95% | pest or weed control at 5 ppm (root-knot nematode [2]; 168 h, Table 3, inoculation 1 week after treatment): 98% | pest or weed control at 10 ppm (root-knot nematode [2]; 168 h, Table 3, 10 ppm, inoculation 1 week after treatment): 99% | pest or weed control at 5 ppm (root-knot nematode [2]; 336 h, Table 3, inoculation 2 weeks after treatment): 98% | pest or weed control at 10 ppm (root-knot nematode [2]; 336 h, Table 3, 10 ppm, inoculation 2 weeks after treatment): 99% | pest or weed control at 5 ppm (root-knot nematode [2]; [7]): 75% | pest or weed control at 10 ppm (root-knot nematode [2]; 672 h): 95% | pest or weed control at 2000 ppm (root-knot nematode [3]; foliar): 79%

FC(F)=C(F)CCSc1nnc(-c2ccc(Cl)cc2)o1 [Compound 17, 2-(4-chlorophenyl)-5-(3,4,4-trifluoro-3-butenylthio)-1,3,4-oxadiazole]
pest or weed control at 2.5 ppm [1]: 100% | pest or weed control at 5 ppm ([1]; Table 2, Application Rate 5.0 ppm): 100% | pest or weed control at 10 ppm ([1]; Table 2, Application Rate 10.0 ppm): 100% | pest or weed control at 2000 ppm (root-knot nematode [3]; foliar): 42%

FC(F)=C(F)CCSc1nnc(SCC2CC2)s1 [Compound 15, 2-cyclopropylmethylthio-5-(3,4,4-trifluoro-3-butenylthio)-1,3,4-thiadiazole]
pest or weed control at 0.313 ppm [1]: 6% | pest or weed control at 0.625 ppm [1, 6]: 31% | pest or weed control at 1.25 ppm [1]: 97% | pest or weed control at 2.5 ppm [1]: 100% | pest or weed control at 2000 ppm (root-knot nematode [3]; foliar): 83%

CC(C)(C)CC(C)(C)Sc1nnc(SCCC(F)=C(F)F)s1 [Compound 12, 2-(1,1,3,3-tetramethylbutylthio)-5-(3,4,4-trifluoro-3-butenylthio)-1,3,4-thiadiazole]
pest or weed control at 0.313 ppm [1]: 8% | pest or weed control at 0.625 ppm [1, 6]: 69% | pest or weed control at 1.25 ppm [1]: 79% | pest or weed control at 2.5 ppm [1]: 100% | pest or weed control at 2000 ppm (root-knot nematode [3]): 73% | pest or weed control at 2000 ppm (root-knot nematode [3]; foliar): 99%

FC(F)=C(F)CCSc1nc(Cl)ns1 [Compound 8, 3-chloro-5-(3,4,4-trifluoro-3-butenylthio)-1,2,4-thiadiazole]
pest or weed control at 5 ppm (root-knot nematode [4]; Table 7, 5 ppm, Bottom container): 96% | pest or weed control at 5 ppm (root-knot nematode [4]; Table 7, 5 ppm, Middle container): 100% | pest or weed control at 5 ppm (root-knot nematode [4]; Table 7, 5 ppm, Top container): 100% | pest or weed control at 0.078 ppm [1]: 58% | pest or weed control at 0.312 ppm [1]: 100% | pest or weed control at 0.625 ppm [1, 6]: 100% | pest or weed control at 1.25 ppm [1]: 100% | pest or weed control at 2.5 ppm [1]: 100% | pest or weed control at 0.156 ppm [1]: 95% | pest or weed control at 5 ppm (cyst nematode): 92% | pest or weed control at 5 ppm (root-knot nematode [2]; [7]): 98%

FC(F)=C(F)CCSc1nnc(SCc2ccc(Br)cc2)s1 [Compound 33, 2-(4-bromophenylmethylthio)-5-(3,4,4-trifluoro-3-butenylthio)-1,3,4-thiadiazole]
pest or weed control at 0.312 ppm [1]: 38% | pest or weed control at 0.625 ppm [1, 6]: 70% | pest or weed control at 1.25 ppm [1]: 84% | pest or weed control at 2.5 ppm [1]: 97% | pest or weed control at 2.5 ppm (lesion nematode): 46% | pest or weed control at 2500 ppm (root-knot nematode [3]; Table 8, rate 2500 ppm): 17% | inhibition at 5 ppm (Caenorhabditis elegans; Table 9 screen): 100% | mortality at 5 ppm (Caenorhabditis elegans; Table 9 screen): 100% | mortality at 5 ppm (Caenorhabditis elegans; Table 10 evaluation): 100% | inhibition at 1.25 ppm (Caenorhabditis elegans; Table 10 evaluation): 100% | mortality at 1.25 ppm (Caenorhabditis elegans; Table 10 evaluation): 100% | inhibition at 2.5 ppm (Caenorhabditis elegans; Table 10 evaluation): 100% | mortality at 2.5 ppm (Caenorhabditis elegans; Table 10 evaluation): 100% | pest or weed control at 5 ppm (stunt nematode): 52%

FC(F)=C(F)CCSc1nnc(SCc2ccccc2)s1 [Compound 32, 2-phenylmethylthio-5-(3,4,4-trifluoro-3-butenylthio)-1,3,4-thiadiazole]
pest or weed control at 5 ppm (root-knot nematode [4]; Table 7a, 5% dust, 5 ppm, BOTTOM container): 25% | pest or weed control at 5 ppm (root-knot nematode [4]; Table 7a, 5% dust, 5 ppm, MIDDLE container): 75% | pest or weed control at 5 ppm (root-knot nematode [4]; Table 7a, 5% dust, 5 ppm, TOP container): 99% | pest or weed control at 0.078 ppm [1]: 8% | pest or weed control at 0.156 ppm [1, 5]: 31% | pest or weed control at 0.312 ppm [1]: 78% | pest or weed control at 0.625 ppm [1, 6]: 97% | pest or weed control at 1.25 ppm [1]: 99% | pest or weed control at 2.5 ppm [1]: 100% | pest or weed control at 1.25 ppm (lesion nematode; rate 1.25 ppm): 0% | pest or weed control at 2.5 ppm (lesion nematode): 28% | pest or weed control at 0.625 ppm (lesion nematode; rate .625 ppm): 0% | pest or weed control at 5 ppm (root-knot nematode [2]; 168 h, Table 3a, 5% dust, inoculation 1 week post-treatment): 99% | pest or weed control at 5 ppm (root-knot nematode [2]; 336 h, Table 3a, 5% dust, inoculation 2 weeks post-treatment): 99% | pest or weed control at 5 ppm (root-knot nematode [2]; 672 h, Table 3a, 5% dust, inoculation 4 weeks post-treatment): 82% | pest or weed control at 2000 ppm (root-knot nematode [3]; foliar): 25% | inhibition at 5 ppm (Caenorhabditis elegans; Table 9 screen): 100% | mortality at 5 ppm (Caenorhabditis elegans; Table 9 screen): 100% | mortality at 5 ppm (Caenorhabditis elegans; Table 10 evaluation): 8% | inhibition at 1.25 ppm (Caenorhabditis elegans; Table 10 evaluation): 25% | mortality at 1.25 ppm (Caenorhabditis elegans; Table 10 evaluation): 0% | inhibition at 2.5 ppm (Caenorhabditis elegans; Table 10 evaluation): 42% | mortality at 2.5 ppm (Caenorhabditis elegans; Table 10 evaluation): 0% | pest or weed control at 5 ppm (stunt nematode): 84%
